Laboratory results published in patent publication US11130741B2 (Bioimics AB, priority 2016, dated 2021).
Converted amounts (≈) assume the structure as drawn.

Experiments:
[1] = test system: E. coli RNase P RNA, M1 RNA; assay: Inhibition of bacterial RNase P activity, IC50 determination (cleavage of pATSerUG by M1 RNA); format: biochemical; conditions: NI = No inhibition
[2] = test system: Staphylococcus aureus (ATCC25923); assay: MIC, broth microdilution (CLSI), Staphylococcus aureus ATCC25923; conditions: ATCC25923, read-out: S. aureus ("Clinical") MIC
[3] = test system: Escherichia coli (ATCC25922); assay: MIC, broth microdilution (CLSI), Escherichia coli ATCC25922; conditions: ATCC25922, read-out: E. coli MIC, Table 15, NI = No inhibition

Row | SMILES | IC50 [1] | MIC [2] | MIC [3]
1 | Nc1cc(C(F)(F)F)cc2c1N(CCCN1CCNCC1)c1ccccc1S2 [compound 83, 10-(3-(piperazin-1-yl)propyl)-3-(trifluoromethyl)-10H-phenothiazin-1-amine] | > 100 µM | 32 µg/mL (≈ 78.3 µM) | > 100 µg/mL
2 | CN(C)CCCN1c2ccccc2Sc2cc(C(F)(F)F)cc(NC(N)=S)c21 [compound 87, 1-(10-(3-(Dimethylamino)propyl)-3-(trifluoromethyl)-10H-phenothiazin-1-yl)thiourea] | > 100 µM | 55 µg/mL (≈ 129 µM) | > 100 µg/mL
3 | CN1CCN(CCCN2c3ccccc3Sc3cc(C(F)(F)F)cc(N)c32)CC1 [compound 88, 10-(3-(4-methylpiperazin-1-yl)propyl)-3-(trifluoromethyl)-10H-phenothiazin-1-amine] | > 100 µM | 27 µg/mL (≈ 63.9 µM) | > 100 µg/mL
4 | CN(C)CCCN1c2ccccc2Sc2cc(Cl)cc(N)c21 [compound 89, 3-chloro-10-(3-(dimethylamino)propyl)-10H-phenothiazin-1-amine] | > 100 µM | 85 µg/mL (≈ 255 µM) | > 100 µg/mL
5 | CC(N)CC(=O)Nc1cc(C(F)(F)F)cc2c1N(CCCN(C)C)c1ccccc1S2 (centres unmarked) [compound 90, 3-amino-N-(10-(3-(dimethylamino)propyl)-3-(trifluoromethyl)-10H-phenothiazin-1-yl)butanamide] | > 100 µM | 64 µg/mL (≈ 141 µM) | > 100 µg/mL
6 | O=C(Nc1cc(C(F)(F)F)cc2c1Nc1ccccc1S2)C1CCCNC1 (centres unmarked) [compound 91, N-(3-(trifluoromethyl)-10H-phenothiazin-1-yl)piperidine-3-carboxamide] | > 100 µM | 8 µg/mL (≈ 20.3 µM) | 32 µg/mL (≈ 81.3 µM)
7 | NC1CCC(C(=O)Nc2cc(C(F)(F)F)cc3c2Nc2ccccc2S3)CC1 (centres unmarked) [compound 95, 4-amino-N-(3-(trifluoromethyl)-10H-phenothiazin-1-yl)cyclohexane-carboxamide] | 94 µM | 32 µg/mL (≈ 78.5 µM) | 64 µg/mL (≈ 157 µM)
8 | NCCCNc1cc(C(F)(F)F)cc2c1Nc1ccccc1S2 [compound 97, N1-(3-(trifluoromethyl)-10H-phenothiazin-1-yl)propane-1,3-diamine] | > 100 µM | 4 µg/mL (≈ 11.8 µM) | 8 µg/mL (≈ 23.6 µM)
9 | NCCNC(=S)Nc1cc(C(F)(F)F)cc2c1Nc1ccccc1S2 [compound 98, 1-(2-aminoethyl)-3-(3-(trifluoro-methyl)-10H-phenothiazin-1-yl)thiourea] | > 100 µM | 8 µg/mL (≈ 20.8 µM) | 16 µg/mL (≈ 41.6 µM)
10 | O=C(Nc1cc(C(F)(F)F)cc2c1Nc1ccccc1S2)[C@@H]1CCCNC1 [compound 100, (R)-N-(3-(trifluoromethyl)-10H-phenothiazin-1-yl)piperidine-3-carboxamide] | > 100 µM | 16 µg/mL (≈ 40.7 µM) | 32 µg/mL (≈ 81.3 µM)
11 | O=C(CCN1CCNCC1)Nc1cc(C(F)(F)F)cc2c1Nc1ccccc1S2 [compound 101, 3-(piperazin-1-yl)-N-(3-(trifluoromethyl)-10H-phenothiazin-1-yl)propanamide] | > 100 µM | 32 µg/mL (≈ 75.7 µM) | 64 µg/mL (≈ 151 µM)
12 | O=C(Nc1cc(C(F)(F)F)cc2c1Nc1ccccc1S2)[C@H]1CCCNC1 [compound 106, N-(3-(trifluoromethyl)-10H-phenothiazin-1-yl)piperidine-3-carboxamide] | > 100 µM | 32 µg/mL (≈ 81.3 µM) | 64 µg/mL (≈ 163 µM)
13 | NC1CCC(CNc2cc(C(F)(F)F)cc3c2Nc2ccccc2S3)CC1 (centres unmarked) [compound 108, N-((4-aminocyclohexyl)methyl)-3-(trifluoromethyl)-10H-phenothiazin-1-amine] | > 100 µM | 8 µg/mL (≈ 20.3 µM) | 32 µg/mL (≈ 81.3 µM)
14 | NC1CCCC(C(=O)Nc2cc(C(F)(F)F)cc3c2Nc2cc(F)ccc2S3)C1.O=C(O)C(F)(F)F (centres unmarked) [compound 124, 3-Amino-N-(8-fluoro-3-(trifluoromethyl)-10H-phenothiazin-1-yl)cyclohexane carboxamide. TFA Salt] | 59 µM | 17 µg/mL | 35 µg/mL

Second part, the molecule after the results:

Row | IC50 [1] | MIC [2] | MIC [3] | SMILES
15 | > 100 µM | 6 µg/mL (≈ 16.6 µM) | > 100 µg/mL | CN(C)CCCN1c2ccccc2Sc2cc(-c3ccccc3)ccc21 [compound 110, N,N-dimethyl-3-(3-phenyl-10H-phenothiazin-10-yl)propan-1-amine]
16 | > 100 µM | 7 µg/mL (≈ 15.3 µM) | > 100 µg/mL | O=C(CC1(O)CCC(F)(F)CC1)Nc1cc(C(F)(F)F)cc2c1Nc1ccccc1S2 [compound 115, 2-(4,4-difluoro-1-hydroxycyclo-hexyl)-N-(3-(trifluoromethyl)-10H-phenothiazin-1-yl)acetamide]
17 | > 100 µM | 42 µg/mL (≈ 129 µM) | > 100 µg/mL | CN(C)CCCN1c2ccccc2Sc2cc(C3CC3)ccc21 [compound 116, 3-(3-cyclopropyl-10H-phenothiazin-10-yl)-N,N-dimethylpropan-1-amine]
18 | > 100 µM | 26 µg/mL (≈ 64.9 µM) | > 100 µg/mL | CN(C)CCCN1c2ccccc2Sc2cc(-c3ccc4[nH]cnc4c3)ccc21 [compound 117, 3-(3-(1H-benzo[d]imidazol-5-yl)-10H-phenothiazin-10-yl)-N,N-dimethylpropan-1-amine]
19 | 17 µM | 13 µg/mL (≈ 31.9 µM) | 26 µg/mL (≈ 63.8 µM) | N[C@H]1CCC[C@@H](C(=O)Nc2cc(C(F)(F)F)cc3c2Nc2ccccc2S3)C1 [compound 118, (1R,3S)-3-amino-N-(3-(trifluoromethyl)-10H-phenothiazin-1-yl)cyclohexane-carboxamide]
20 | > 100 µM | 93 µg/mL (≈ 255 µM) | > 100 µg/mL | N#Cc1cc(NC(=O)C2CCCC(N)C2)c2c(c1)Sc1ccccc1N2 (centres unmarked) [compound 119, 3-amino-N-(3-cyano-10H-phenothiazin-1-yl)cyclohexane-carboxamide]
21 | 12 µM | 27 µg/mL (≈ 64.1 µM) | > 100 µg/mL | NC[C@H]1CC[C@H](C(=O)Nc2cc(C(F)(F)F)cc3c2Nc2ccccc2S3)CC1 [compound 120, (1R,4R)-4-(aminomethyl)-N-(3-(trifluoromethyl)-10H-phenothiazin-1-yl)cyclohexane-carboxamide]
22 | > 100 µM | 6 µg/mL (≈ 15 µM) | > 100 µg/mL | CN(C)CCCN1c2ccccc2Sc2cc(-c3ccc4[nH]ccc4c3)ccc21 [compound 121, 3-(3-(1H-indol-5-yl)-10H-phenothiazin-10-yl)-N,N-dimethylpropan-1-amine]
23 | > 100 µM | 24 µg/mL (≈ 63.2 µM) | > 100 µg/mL | CN(C)CCCN1c2ccccc2Sc2cc(-c3ccnc(F)c3)ccc21 [compound 122, 3-(3-(2-fluoropyridin-4-yl)-10H-phenothiazin-10-yl)-N,N-dimethylpropan-1-amine]
24 | 20 µM | 13 µg/mL (≈ 31.9 µM) | 26 µg/mL (≈ 63.8 µM) | N[C@@H]1CCC[C@H](C(=O)Nc2cc(C(F)(F)F)cc3c2Nc2ccccc2S3)C1 [compound 125, (1S,3R)-3-amino-N-(3-(trifluoromethyl)-10H-phenothiazin-1-yl)cyclohexane-carboxamide]
25 | > 100 µM | 82 µg/mL (≈ 256 µM) | > 100 µg/mL | CN(C)CCCN1c2ccc(Cl)cc2Sc2cccnc21 [compound 126, 3-(7-chloro-10H-benzo[b]pyrido [2,3-e][1,4]thiazin-10-yl)-N,N-dimethyl-propan-1-amine]
26 | 39 µM | 15 µg/mL (≈ 31.2 µM) | – | FC(F)(F)c1cc(NC2CCNCC2)c2c(c1)Sc1cc(-c3cc4ccccc4[nH]3)ccc1N2 [compound 243, 7-(1H-indol-2-yl)-N-(piperidin-4-yl)-3-(trifluoromethyl)-10H-phenothiazin-1-amine]
